One assay has as its target T1, JAK1 (Homo sapiens, UniProt P23458).
T1 construct: purchased Invitrogen
The assay can be described thus: JAK1 enzyme inhibition test (LANCE method). The conditions noted are these: test compound 1 μM; read-out: Inhibitory rate (%) JAK1 1 μM. The assay is classed as biochemical. In a few lines:
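TR-FRET (LANCE) kinase assay using JAK1 at 187.5 ng/mL, ULight-JAK1 peptide at 300 nM and ATP at 150 μM, given as solution concentrations before mixing. Buffer was 50 mM HEPES pH 7.5 with 10 mM MgCl2 and 2 mM DTT, and the reaction ran 1 h at room temperature. Eu anti-phosphotyrosine signal at 665 nm was expressed relative to a no-enzyme well, taken as 100% inhibition.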

The next assay deals with T2, Tyk2 (Homo sapiens, UniProt P29597).
T2 construct: purchased Invitrogen
The assay can be described thus: Tyk2 enzyme inhibition test (LANCE method). The assay is classed as biochemical. The following applies: test compound 1 μM; read-out: Inhibitory rate (%) Tyk2 1 μM. In a few lines: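 Recombinant Tyk2 (375 ng/mL stock) with ULight-JAK1 peptide (300 nM stock) and ATP (30 μM stock) in HEPES pH 7.5/MgCl2/EGTA/DTT buffer, 1 h at room temperature. Stopped with EDTA plus Eu-anti-phosphotyrosine antibody; TR-FRET read at 665 nm after 1 h. No-enzyme wells define 100% inhibition.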

T2 sequence (P29597 whole entry): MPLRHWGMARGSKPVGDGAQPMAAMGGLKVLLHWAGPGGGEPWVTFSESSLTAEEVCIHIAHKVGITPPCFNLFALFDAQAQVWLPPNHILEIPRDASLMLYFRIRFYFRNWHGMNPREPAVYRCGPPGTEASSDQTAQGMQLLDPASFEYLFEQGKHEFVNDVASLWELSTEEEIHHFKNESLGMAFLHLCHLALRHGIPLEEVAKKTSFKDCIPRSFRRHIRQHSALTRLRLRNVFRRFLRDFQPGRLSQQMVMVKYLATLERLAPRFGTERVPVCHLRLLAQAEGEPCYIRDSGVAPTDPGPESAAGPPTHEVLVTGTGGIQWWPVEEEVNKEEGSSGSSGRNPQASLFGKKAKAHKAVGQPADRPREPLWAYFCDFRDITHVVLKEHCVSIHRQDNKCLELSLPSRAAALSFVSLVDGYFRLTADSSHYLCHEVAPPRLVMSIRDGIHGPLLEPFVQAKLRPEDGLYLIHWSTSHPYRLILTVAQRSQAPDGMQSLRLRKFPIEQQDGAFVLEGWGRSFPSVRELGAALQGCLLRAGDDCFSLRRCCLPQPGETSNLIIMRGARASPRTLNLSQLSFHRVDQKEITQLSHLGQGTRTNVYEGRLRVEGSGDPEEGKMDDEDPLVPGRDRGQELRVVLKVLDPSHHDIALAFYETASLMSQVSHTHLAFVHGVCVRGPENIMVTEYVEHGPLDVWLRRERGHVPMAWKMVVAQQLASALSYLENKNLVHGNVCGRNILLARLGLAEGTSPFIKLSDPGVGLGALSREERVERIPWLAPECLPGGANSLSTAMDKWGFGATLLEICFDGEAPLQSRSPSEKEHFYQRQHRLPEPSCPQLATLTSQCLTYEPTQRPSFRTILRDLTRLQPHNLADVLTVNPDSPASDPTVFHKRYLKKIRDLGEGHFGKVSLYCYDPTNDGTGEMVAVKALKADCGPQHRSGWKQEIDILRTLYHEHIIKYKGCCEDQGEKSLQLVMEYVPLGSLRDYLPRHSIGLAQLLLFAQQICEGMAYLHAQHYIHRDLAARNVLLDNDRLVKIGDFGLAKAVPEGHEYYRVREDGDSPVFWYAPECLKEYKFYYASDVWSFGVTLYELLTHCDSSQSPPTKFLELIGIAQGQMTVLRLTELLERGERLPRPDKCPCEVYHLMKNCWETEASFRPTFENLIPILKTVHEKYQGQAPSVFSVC
T1 sequence (P23458 whole entry): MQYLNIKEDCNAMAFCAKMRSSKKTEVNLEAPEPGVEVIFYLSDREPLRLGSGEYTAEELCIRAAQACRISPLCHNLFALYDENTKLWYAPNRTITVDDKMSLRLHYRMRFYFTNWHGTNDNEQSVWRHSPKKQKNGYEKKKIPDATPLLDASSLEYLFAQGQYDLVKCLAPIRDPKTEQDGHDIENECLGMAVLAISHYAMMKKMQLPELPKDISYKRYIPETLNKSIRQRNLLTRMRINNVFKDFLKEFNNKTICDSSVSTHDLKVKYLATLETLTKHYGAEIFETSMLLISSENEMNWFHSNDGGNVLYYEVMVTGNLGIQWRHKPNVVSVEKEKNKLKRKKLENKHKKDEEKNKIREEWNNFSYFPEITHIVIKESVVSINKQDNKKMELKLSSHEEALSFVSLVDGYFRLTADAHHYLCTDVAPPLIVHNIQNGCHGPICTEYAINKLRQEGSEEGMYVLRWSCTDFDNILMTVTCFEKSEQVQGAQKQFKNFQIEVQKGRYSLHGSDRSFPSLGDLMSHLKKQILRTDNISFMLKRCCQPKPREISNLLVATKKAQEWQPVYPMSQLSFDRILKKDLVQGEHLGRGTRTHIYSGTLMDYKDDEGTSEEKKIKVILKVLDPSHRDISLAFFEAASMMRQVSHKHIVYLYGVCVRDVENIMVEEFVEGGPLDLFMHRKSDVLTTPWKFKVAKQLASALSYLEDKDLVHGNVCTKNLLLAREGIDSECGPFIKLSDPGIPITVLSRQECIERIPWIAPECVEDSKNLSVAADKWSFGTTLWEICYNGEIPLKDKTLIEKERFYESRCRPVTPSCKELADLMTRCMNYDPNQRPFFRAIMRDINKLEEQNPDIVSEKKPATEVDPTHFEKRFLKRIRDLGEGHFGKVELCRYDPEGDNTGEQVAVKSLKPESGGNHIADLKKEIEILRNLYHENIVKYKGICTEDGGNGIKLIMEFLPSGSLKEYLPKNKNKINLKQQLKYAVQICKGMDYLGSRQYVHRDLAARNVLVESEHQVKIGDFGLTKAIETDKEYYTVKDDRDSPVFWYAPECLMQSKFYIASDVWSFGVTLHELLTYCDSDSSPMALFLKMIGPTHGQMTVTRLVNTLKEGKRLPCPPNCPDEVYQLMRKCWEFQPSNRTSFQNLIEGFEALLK

With `Nc1ncc(-c2nn(-c3c(F)cccc3F)c3cc[nH]c(=O)c23)cn1` [Example 300, 3-(2-aminopyrimidin-5-yl)-1-(2,6-difluorophenyl)-1,5-dihydro-4H-pyrazolo[4,3-c]pyridin-4-one], the values for the inhibition at 1 µM on JAK1 and on Tyk2 were 68% and 83%, respectively.
Consider `CC(=O)N1CCC(c2ccc(-c3nn(-c4c(F)cccc4F)c4cc[nH]c(=O)c34)cc2)CC1` [Example 301, 3-(4-(1-acetylpiperidin-4-yl)phenyl)-1-(2,6-difluorophenyl)-1,5-dihydro-4H-pyrazolo[4,3-c]pyridin-4-one], for which the inhibition at 1 µM on JAK1 worked out at 97%; on Tyk2, 99%.
The matching figures for `COc1cc(N)cc(F)c1-n1cc(-c2csc(C(N)=O)c2)c2c(=O)[nH]ccc21` [Example 302, 4-(1-(4-amino-2-fluoro-6-methoxyphenyl)-4-oxo-4,5-dihydro-1H-pyrrolo[3,2-c]pyridin-3-yl)thiophene-2-carboxamide]: 97% and 95%.
Turning to `Nc1cc(F)c(-n2nc(-c3ccc(S(N)(=O)=O)cc3)c3c(=O)[nH]ccc32)c(F)c1` [Example 303, 4-(1-(4-amino-2,6-difluorophenyl)-4-oxo-4,5-dihydro-1H-pyrazolo[4,3-c]pyridin-3-yl)benzenesulfonamide], the inhibition at 1 µM worked out at 99% at JAK1 and 100% on Tyk2.
For `O=C1COCCN1c1ccc(-c2nn(-c3c(F)cccc3F)c3cc[nH]c(=O)c23)cc1` [Example 304, 1-(2,6-difluorophenyl)-3-(4-(3-oxomorpholin-4-yl)phenyl)-1,5-dihydro-4H-pyrazolo[4,3-c]pyridin-4-one], in that order: 97% and 99%.
As to `N#Cc1cccc(F)c1-n1nc(-c2ccc(N3CCOCC3)cc2)c2c(=O)[nH]ccc21` [Example 305, 3-fluoro-2-(3-(4-(morpholin-4-yl)phenyl)-4-oxo-4,5-dihydro-1H-pyrazolo[4,3-c]pyridin-1-yl)benzonitrile], the inhibition at 1 µM on JAK1 turned out to be 93%; on Tyk2, 99%.
Turning to `N#Cc1cccc(F)c1-n1nc(-c2ccc(N3CCOCC3)nc2)c2c(=O)[nH]ccc21` [Example 306, 3-fluoro-2-(3-(6-(morpholin-4-yl)pyridin-3-yl)-4-oxo-4,5-dihydro-1H-pyrazolo[4,3-c]pyridin-1-yl)benzonitrile], the inhibition at 1 µM on JAK1 amounted to 90%; on Tyk2, 98%.
For `CNC(=O)c1ccc(-c2nn(-c3c(F)cccc3C#N)c3cc[nH]c(=O)c23)cc1` [Example 307, 4-(1-(2-cyano-6-fluorophenyl)-4-oxo-4,5-dihydro-1H-pyrazolo[4,3-c]pyridin-3-yl)-N-methylbenzamide], in that order: 92% and 99%.
Consider `O=c1[nH]ccc2c1c(-c1ccc(N3CCOCC3)cc1)nn2-c1c(F)cc(F)cc1F` [Example 308, 3-(4-(morpholin-4-yl)phenyl)-1-(2,4,6-trifluorophenyl)-1,5-dihydro-4H-pyrazolo[4,3-c]pyridin-4-one], for which the inhibition at 1 µM was 91% at JAK1 and 98% at Tyk2.
For `O=c1[nH]ccc2c1c(-c1ccc(N3CCOCC3)nc1)nn2-c1c(F)cccc1F` [Example 309, 1-(2,6-difluorophenyl)-3-(6-(morpholin-4-yl)pyridin-3-yl)-1,5-dihydro-4H-pyrazolo[4,3-c]pyridin-4-one], the inhibition at 1 µM was determined as 93% on JAK1 and 99% on Tyk2.
With `CNC(=O)C1CCN(c2ccc(-c3nn(-c4c(F)cccc4F)c4cc[nH]c(=O)c34)cc2)CC1` [Example 310, 1-(4-(1-(2,6-difluorophenyl)-4-oxo-4,5-dihydro-1H-pyrazolo[4,3-c]pyridin-3-yl)phenyl)-N-methylpiperidine-4-carboxamide], the inhibition at 1 µM on JAK1 was determined as 93%; on Tyk2, 100%.
For the compound `CS(=O)(=O)N1CCN(c2ccc(-c3nn(-c4c(F)cccc4F)c4cc[nH]c(=O)c34)cc2)CC1` [Example 311, 1-(2,6-difluorophenyl)-3-(4-(4-(methylsulfonyl)piperazin-1-yl)phenyl)-1,5-dihydro-4H-pyrazolo[4,3-c]pyridin-4-one], the inhibition at 1 µM was determined as 95% on JAK1 and 99% at Tyk2.
Regarding `O=C(CO)N1CCN(c2ccc(-c3nn(-c4c(F)cccc4F)c4cc[nH]c(=O)c34)cc2)CC1` [Example 312, 1-(2,6-difluorophenyl)-3-(4-(4-glycoloylpiperazin-1-yl)phenyl)-1,5-dihydro-4H-pyrazolo[4,3-c]pyridin-4-one], the inhibition at 1 µM on JAK1 came out at 94%; at Tyk2, 99%.
As for `COCC(=O)N1CCN(c2ccc(-c3nn(-c4c(F)cccc4F)c4cc[nH]c(=O)c34)cc2)CC1` [Example 313, 1-(2,6-difluorophenyl)-3-(4-(4-(methoxyacetyl)piperazin-1-yl)phenyl)-1,5-dihydro-4H-pyrazolo[4,3-c]pyridin-4-one], the inhibition at 1 µM worked out at 95% at JAK1 and 100% on Tyk2.
For the compound `CC1(C)CCCC1n1nc(-c2ccc(N3CCOCC3)cc2)c2c(=O)[nH]ccc21` (stereo not drawn) [Example 314, 1-(2,2-dimethylcyclopentyl)-3-(4-(morpholin-4-yl)phenyl)-1,5-dihydro-4H-pyrazolo[4,3-c]pyridin-4-one], the inhibition at 1 µM on JAK1 is 95%; at Tyk2, 99%.
As to `N#Cc1cccc(F)c1-n1nc(-c2cn[nH]c2)c2c(=O)[nH]ccc21` [Example 315, 3-fluoro-2-(4-oxo-3-(1H-pyrazol-4-yl)-4,5-dihydro-1H-pyrazolo[4,3-c]pyridin-1-yl)benzonitrile], the inhibition at 1 µM turned out to be 97% at JAK1 and 98% at Tyk2.
For the compound `CC(=O)N1CCC(c2ccc(-c3nn(-c4c(F)cccc4F)c4cc[nH]c(=O)c34)cc2)C(F)(F)C1` (stereo not drawn) [Example 316, 3-(4-(1-acetyl-3,3-difluoropiperidin-4-yl)phenyl)-1-(2,6-difluorophenyl)-1,5-dihydro-4H-pyrazolo[4,3-c]pyridin-4-one], the inhibition at 1 µM at JAK1 and on Tyk2 was 99% throughout.
As to `O=c1[nH]ccc2c1c(-c1ccc(N3CCOCC3)cc1)nn2C1CCCCC1(F)F` (stereo not drawn) [Example 317, 1-(2,2-difluorocyclohexyl)-3-(4-(morpholin-4-yl)phenyl)-1,5-dihydro-4H-pyrazolo[4,3-c]pyridin-4-one], the inhibition at 1 µM on JAK1 amounted to 96%; at Tyk2, 99%.

The record behind these values is patent US9371320B2, “Heterocyclic compound” (TAKEDA PHARMACEUTICAL COMPANY LIMITED, priority 2012, dated 2016).
